# According to US4738979A, “α2 -blocking derivatives of imidazole” (G. D. Searle & Co., priority 1985, dated 1988):
# Assays:
# [1] = target: T1, α2 -adrenergic receptors (Rattus norvegicus, UniProt P22909); assay: binding to α2-adrenergic receptors on rat brain homogenates (3H-p. aminoclonidine); conditions: 10^-7 M; rat brain homogenates; 0.7 nM 3H-p. aminoclonidine; read-out: % Inhibition of the Specific Binding at 10^-7 M for α2 Recep.
# T1 construct: from tissue; host or cells: rat brain homogenates
# T1 sequence (P22909 1-465): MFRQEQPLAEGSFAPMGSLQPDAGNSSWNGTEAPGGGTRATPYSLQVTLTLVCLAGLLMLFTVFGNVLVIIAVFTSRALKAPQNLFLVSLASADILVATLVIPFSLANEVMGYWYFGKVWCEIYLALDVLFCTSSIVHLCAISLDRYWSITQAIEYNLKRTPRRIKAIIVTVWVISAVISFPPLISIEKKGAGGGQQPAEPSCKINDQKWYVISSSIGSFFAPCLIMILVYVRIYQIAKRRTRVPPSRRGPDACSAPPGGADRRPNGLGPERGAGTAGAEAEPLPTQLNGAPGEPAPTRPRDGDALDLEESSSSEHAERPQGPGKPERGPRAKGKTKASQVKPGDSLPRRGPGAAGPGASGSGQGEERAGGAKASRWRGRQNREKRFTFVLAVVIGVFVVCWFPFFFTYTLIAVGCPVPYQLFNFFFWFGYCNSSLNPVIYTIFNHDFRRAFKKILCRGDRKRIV
# Experimental: (§1) The activity of the compounds according to the invention with respect to binding of the α-adrenergic receptors was determined in vitro according to a method deriving from the works of B. R. Rouot et al., Life Sci., 25, 769 (1979) and of D. U'Prichard et al., Mol. Pharmacol., 13, 454 (1977). This method consists in measuring the binding to the receptor on rat brain homogenates, by marking by means of a specific tritriated ligand placed in competition with the product to be tested.
# (§2) In the presenct case the binding to the α1 -adrenergic receptors was measured by means of 1.6 nM of ^3 H-WB 4101 and the binding to the α2 -adrenergic receptors by means of 0.7 nM of ^3 H-p. aminoclonidine, the non-specific binding being determined by 1,000 nM of phentolamine. The results are given in Table II, column 3, and are expressed in terms of percentage of inhibition of the specific binding of 10^-7 molar compound concentration.
# (§3) (2) The specific binding is the total binding less the nonspecific
# (§4) binding. The total binding is the binding in the absence of nonradioactiv
# (§5) drug. The nonspecific binding is the binding in the presence of 1,000 nM
# (§6) of phentolamine. The products of the invention are tested at a
# (§7) concentration of 10^-7 molar.
# [2] = tested on: α1 -adrenergic receptors; assay: binding to α1-adrenergic receptors on rat brain homogenates (3H-WB 4101); conditions: 1.6 nM 3H-WB 4101
# Experimental: as §1, §2, §3, §4, §5, §6, §7
# [3] = target: T2, α2 -adrenergic receptors (Cavia porcellus, UniProt Q60474); assay: α2 antagonist and α2 agonist activity in isolated guinea pig ileum (clonidine)
# T2 construct: from tissue; host or cells: isolated guinea pig ileum
# T2 sequence (Q60474 1-464): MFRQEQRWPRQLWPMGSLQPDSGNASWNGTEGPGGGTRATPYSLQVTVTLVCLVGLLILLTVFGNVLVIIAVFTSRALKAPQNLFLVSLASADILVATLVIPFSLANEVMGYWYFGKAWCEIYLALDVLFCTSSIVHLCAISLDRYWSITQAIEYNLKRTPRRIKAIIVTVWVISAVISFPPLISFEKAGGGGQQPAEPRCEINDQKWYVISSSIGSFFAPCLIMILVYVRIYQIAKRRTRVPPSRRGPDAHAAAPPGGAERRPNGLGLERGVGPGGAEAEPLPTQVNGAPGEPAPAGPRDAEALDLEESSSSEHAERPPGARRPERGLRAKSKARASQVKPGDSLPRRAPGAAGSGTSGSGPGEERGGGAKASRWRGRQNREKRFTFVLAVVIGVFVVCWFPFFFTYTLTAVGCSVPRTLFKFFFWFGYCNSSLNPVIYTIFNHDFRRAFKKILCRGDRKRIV
# Experimental: The α2 antagonist and α2 agonist activity of the compounds according to the invention was determined upon isolated organs according to a model described by G. M. Drews, Br. J. Pharmaco., 64, 293-300 (1978).
# This model is based upon the principle that the stimulation of the cholinergic nervous transmissions of the guinea pig ileum causes the liberation of acetyl choline, which in turn causes contractions of the ileum.
# The stimulation of the α2 -adrenergic receptors inhibits the activity of the cholinergic nerve and consequently reduces all response resulting from a timulation of the latter. Thus the contractions of the ileum induced by electric stimulation of the tissue are inhibited by clonidine, an α2 agonist, in proportion to the dose. This inhibition is specifically displaced by the α2 antagonists and not by the α1 antagonists.
# The method utilized can be summarized as follows: three dose-response curves to clonidine are established at an interval of 60 minutes. Two concentrations of the product to be tested are added successively 10 minutes before the realization of the second and third clonidine curves. Next, after washing, a dose-response curve is established with the product to be tested.
# The dose-response curves are calculated as a percentage of the maximum inhibition obtained for the first curve. In this system the products having an α2 antagonist activity displace the dose-response curve to clonidine. The α2 antagonist activity, expressed in pA2 value, shown in column 4, is calculated according to J. M. Van Rossum, Arch. Int. Pharmacodyn., 143, 299-300 (1963).
# A reduction of the contractions induced by the tested product alone indicates an α2 agonist effect. This activity is expressed in--log ED50 (the--logarithm of the concentration of the product giving 50% of the maximum inhibition obtained with clonidine).
# The higher the pA2 value, the higher the α2 antagonist activity; the higher the--log ED50 value (i.e., the pA2 agonist activity), the higher the α2 agonist activity.
# [4] = tested on: α2 adrenergic receptors of the central nervous system; assay: inhibition of the antihypertensive action of clonidine in spontaneously hypertensive rats (SHR); type: in vivo, rat; conditions: 1 mg/kg p.o., clonidine 50 μg/kg s.c.
# Experimental: In the first study, carried out upon unanaesthetized spontaneously hypertensive rats (SHR rats), the ability of the compounds of the present invention to inhibit the antihypertensive action of clonidine was determined.
# The antihypertensive activity of clonidine results from an interaction with α2 adrenergic receptors of the central nervous system, i.e., central antihypertensive actions.
# In this test, two groups of SHR rats are utilized as follows. In the first group, prior to subcutaneous administration of clonidine (50 μg/kg), the SHR rats are treated with the compound to be tested (1 mg/kg p.o.) dissolved in a saline vehicle. The second group (control group) of SHR rats are treated with the saline vehicle only, prior to subcutaneous administration of clonidine.
# The arterial pressure is measured in the region of the median coccygeal artery according to the method of J. Roba, A. F. DeSchaepdrijver, Exp. Anim., 4, 147-162 (1971).
# The results of this assay summarized in Table II, column 5, are expressed as a percentage of inhibition of the effect of clonidine.
# [5] = tested on: bicuculline-induced tonic extension in mice; assay: protection against bicuculline-induced tonic extension in mice; type: in vivo; conditions: Mus musculus, iv, 3 hours prior to bicuculline 0.7 mg/kg i.v., read-out: Anticonvulsive effect (versus Bicuculline) (% Protection)
# Experimental: In the second study the anti-convulsant effect of the compounds of the present invention was examined in two seizure models; bicuculline-induced tonic extension in mice and 3-mercaptopropionic acid (3-MPA)-induced tonic extension in mice.
# In the bicuculline study, the ability of the compounds of the present invention to protect against tonic extension (involving rigidity) was evaluated as follows. Each test compound was administered to a group of ten mice at a dose of 10 mg/kg, 3 hours prior to the i.v. administration of bicuculline (0.7 mg/kg). Anticonvulsant activity in this test is expressed as percentage of animals tested. The results are given in Table II, column 6, and indicate that several compounds display significant anticonvulsive activity in this test. The anticonvulsant effect of the compounds has also been tested with respect to the tonic extension induced by 3-mercaptopropionic acid (120 mg/kg subcutaneously) in mice.
# [6] = acute toxicity after oral administration to mice (LD50); conditions: mouse, in vivo, 15 days mortality
# Experimental: The acute toxicity of the compounds of the present invention was studied after oral administration to mice. The products to be tested, suspended in a 1% tragacanth gum mucilage, were administered by means of an intragastric probe to groups of three male mice which had fasted since the preceding day. The doses tested are a function of the effect observed and can vary from 3,000 to 3 mg/kg or less. The mortality was recorded for 15 days. The lethal dose for 50% of the animals (LD50) was calculated according to the method of J. Litchfield and F. Wilcoxon, J. Pharmacol. Exp. Ther., 96, 99 (1949) and expressed in mg/kg. The effect of the products on the behaviour of the animals is observed until 5 to 6 hours after the treatment indicated above and after 24 hours, using a method derived from that of S. Irwin, described by R. A. Turner, Screening Methods in Pharmacology, Chapter 3, pages 22-34, Academic Press, 1965. If anomalies are noted, the observation is prolonged and smaller doses are tested.
SMILES,inhibition at 0.1 µM [1],% Inhibition of the Specific Binding at 10^-7 M for α1 Recep. [2],"EC50 ([3]; 50% of maximum inhibition obtained with clonidine, read-out: α2 Agonist Activity (-log ED50) (converted))","Kb ([3]; versus clonidine, read-out: α2 Antagonist Activity (pA2) (converted))",α2 Antagonist (% Inhibition of the Antihypertension of Clonidine) [4],responders at 10 mg/kg [5],LD50 at 360 h [6]
"CC(=C(c1ccccc1)c1ccccc1)c1c[nH]cn1 [Compound 2, 4(5)-[(2,2-diphenyl-1-methyl)ethenyl]imidazole]",43%,3%,2.51 µM,0.0501 µM,71%,20%,
OC(c1c[nH]cn1)C(c1ccccc1)c1ccccc1 (stereo not shown) [Compound 5],2%,3%,,,24%,30%,> 300 mg/kg
COC(c1c[nH]cn1)C(c1ccccc1)c1ccccc1 (stereo not shown) [Compound 6],0%,0%,,,62%,30%,
c1ccc(C(Cc2c[nH]cn2)(c2ccccc2)c2ccccc2)cc1 [Compound 8],0%,0%,,,28%,20%,1.75 mg/kg
C(=C(c1ccccc1)c1ccccc1)c1c[nH]cn1 [Compound 11],9%,6%,,,48%,40%,
"CCCC(=C(c1ccccc1)c1ccccc1)c1c[nH]cn1 [Compound 18, 4(5)-[(2,2-diphenyl-1-n.propyl)-ethenyl]-imidazole]",0%,0%,,,47%,50%,270 mg/kg
"CCCC(c1c[nH]cn1)C(c1ccccc1)c1ccccc1 (stereo not shown) [Compound 19, 4(5)-[2-(1,1-diphenyl)pentyl]imidazole]",15%,4%,,,75%,40%,350 mg/kg
"CCCC(OC)(c1c[nH]cn1)C(c1ccccc1)c1ccccc1 (stereo not shown) [Compound 20, 4(5)-[2-(1,1-diphenyl-2-methoxy)-pentyl]imidazole]",6%,0%,,,62%,60%,> 300 mg/kg
"Cc1nc(CC(c2ccccc2)c2ccccc2)c[nH]1 [Compound 25, 4(5)-(2,2-diphenylethyl)-2-methylimidazole]",3%,0%,,,87%,10%,
COC(c1c[nH]c(C)n1)C(c1ccccc1)c1ccccc1 (stereo not shown) [Compound 26],2%,1%,,,,10%,350 mg/kg
O=C(O)c1ccccc1C(Cc1c[nH]cn1)c1ccccc1 (stereo not shown) [Compound 30],1%,12%,,,,,> 300 mg/kg
COC(=O)c1ccccc1C(Cc1c[nH]cn1)c1ccccc1 (stereo not shown) [Compound 31],20%,13%,,,,,
